# Test system: NOMO1
# Test: cell viability relative to DMSO control; higher = less cytotoxic
# Conditions: 48 h
# Procedure, shortened: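 Library compounds in DMSO were pin-dosed into 1536-well plates (5 μl) holding NOMO1 or SEM (500 cells/well) or P12-Ichikawa (1000 cells/well) leukemia cells, across an 11-point threefold series of 47 μM to 0.79 nM. Each cell line had been adapted for at least four passages in each medium. CellTiter-Glo One luminescence was read after 48 h at 37°C. Viability is the per-plate percentage relative to DMSO wells, with cell-free wells as background.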
# [1] = HPLM + 10% dialyzed FBS, 0.000781 µM
# [2] = HPLM + 10% dialyzed FBS, 0.00234 µM
# [3] = HPLM + 10% dialyzed FBS, 0.00702 µM
# [4] = HPLM + 10% dialyzed FBS, 0.0211 µM
# [5] = HPLM + 10% dialyzed FBS, 0.0632 µM
# [6] = HPLM + 10% dialyzed FBS, 0.19 µM
# [7] = HPLM + 10% dialyzed FBS, 0.569 µM
# [8] = HPLM + 10% dialyzed FBS, 1.71 µM
# [9] = HPLM + 10% dialyzed FBS, 5.12 µM
# [10] = HPLM + 10% dialyzed FBS, 15.4 µM
# [11] = HPLM + 10% dialyzed FBS, 46.1 µM
# [12] = RPMI 5 mM glucose + 10% FBS, 0.000781 µM
# [13] = RPMI 5 mM glucose + 10% FBS, 0.00234 µM
# [14] = RPMI 5 mM glucose + 10% FBS, 0.00702 µM
# [15] = RPMI 5 mM glucose + 10% FBS, 0.0211 µM
# [16] = RPMI 5 mM glucose + 10% FBS, 0.0632 µM
# [17] = RPMI 5 mM glucose + 10% FBS, 0.19 µM
# [18] = RPMI 5 mM glucose + 10% FBS, 0.569 µM
# [19] = RPMI 5 mM glucose + 10% FBS, 1.71 µM
# [20] = RPMI 5 mM glucose + 10% FBS, 5.12 µM
# [21] = RPMI 5 mM glucose + 10% FBS, 15.4 µM
# [22] = RPMI 5 mM glucose + 10% FBS, 46.1 µM
# [23] = RPMI 5 mM glucose + 10% dialyzed FBS, 0.000781 µM
# [24] = RPMI 5 mM glucose + 10% dialyzed FBS, 0.00234 µM
# [25] = RPMI 5 mM glucose + 10% dialyzed FBS, 0.00702 µM
# [26] = RPMI 5 mM glucose + 10% dialyzed FBS, 0.0211 µM
# [27] = RPMI 5 mM glucose + 10% dialyzed FBS, 0.0632 µM
# [28] = RPMI 5 mM glucose + 10% dialyzed FBS, 0.19 µM
# [29] = RPMI 5 mM glucose + 10% dialyzed FBS, 0.569 µM
# [30] = RPMI 5 mM glucose + 10% dialyzed FBS, 1.71 µM
# [31] = RPMI 5 mM glucose + 10% dialyzed FBS, 5.12 µM
# [32] = RPMI 5 mM glucose + 10% dialyzed FBS, 15.4 µM
# [33] = RPMI 5 mM glucose + 10% dialyzed FBS, 46.1 µM
SMILES,cell viability [1],cell viability [2],cell viability [3],cell viability [4],cell viability [5],cell viability [6],cell viability [7],cell viability [8],cell viability [9],cell viability [10],cell viability [11],cell viability [12],cell viability [13],cell viability [14],cell viability [15],cell viability [16],cell viability [17],cell viability [18],cell viability [19],cell viability [20],cell viability [21],cell viability [22],cell viability [23],cell viability [24],cell viability [25],cell viability [26],cell viability [27],cell viability [28],cell viability [29],cell viability [30],cell viability [31],cell viability [32],cell viability [33]
CN1CCN(CCCN2c3ccccc3Sc3ccc(Cl)cc32)CC1.O=C(O)/C=C\C(=O)O.O=C(O)/C=C\C(=O)O,112%,123%,112%,111%,124%,110%,106%,47.9%,42.8%,29.9%,32.1%,97.8%,106%,112%,107%,109%,101%,108%,81.9%,58.3%,24.2%,28.4%,94.7%,104%,127%,106%,117%,115%,116%,68.9%,73%,28.3%,31.9%
CC(S)C(=O)NCC(=O)O (stereo not given),116%,109%,110%,116%,116%,123%,108%,114%,111%,97.9%,89.4%,120%,112%,109%,107%,107%,111%,107%,110%,114%,116%,107%,105%,113%,113%,107%,107%,105%,107%,112%,105%,96.5%,112%
O=C(NCC1CCOCC1)c1cnc(Nc2ccc(Cl)cc2Cl)nc1C(F)(F)F,101%,121%,121%,114%,126%,117%,122%,114%,131%,141%,127%,96.5%,112%,116%,121%,116%,117%,117%,126%,127%,131%,124%,109%,129%,116%,122%,131%,121%,122%,116%,120%,134%,131%
Oc1ccc([C@@H]2Oc3ccc(O)cc3[C@@H]3CCC[C@@H]32)cc1,92.1%,93.1%,95.1%,102%,98%,89.3%,90.5%,94.2%,79.3%,62%,31.8%,93.3%,105%,97.5%,88.1%,87.3%,100%,99.9%,89.7%,81.8%,77%,28.8%,93.8%,92.1%,97.7%,90.7%,90.8%,94.1%,90.7%,87.4%,83.2%,63.7%,25.6%
O=C1N\C=N/C2=C1C=N[NH]2,89.6%,88.4%,96.1%,97%,97.5%,86.8%,97.1%,103%,101%,67.1%,30%,77.9%,87.3%,83%,95.4%,94.9%,81.7%,86.5%,93%,94.3%,91.5%,81%,71.6%,78.3%,69.5%,84.8%,70.8%,91.3%,83.2%,88.6%,89.1%,81.2%,71.9%
Nc1nc(NCCNc2ncc(-n3ccnc3)c(-c3ccc(Cl)cc3Cl)n2)ccc1[N+](=O)[O-],,,,,,,,,,,,105%,124%,126%,128%,127%,141%,144%,157%,141%,151%,165%,92.9%,128%,119%,136%,155%,160%,139%,147%,168%,147%,150%
N#CC[C@H](C1CCCC1)n1cc(-c2ncnc3[nH]ccc23)cn1,117%,106%,103%,91.3%,105%,107%,85.1%,85.8%,61.4%,21.2%,15.7%,94.3%,84.2%,101%,78.9%,82.7%,79.1%,87.1%,78.1%,91.3%,43%,14.8%,97.1%,102%,93.2%,66%,108%,93.8%,88.7%,89.9%,79.9%,61.2%,41.2%
CCOC(=O)[C@H]1O[C@@H]1C(=O)N[C@@H](CC(C)C)C(=O)NCCC(C)C,,,,,,,,,,,,114%,107%,107%,117%,123%,116%,114%,104%,102%,92.2%,12.6%,114%,112%,121%,126%,106%,121%,113%,109%,102%,112%,15.1%
C1COC(NC(C2CC2)C2CC2)=N1,73.1%,94%,93%,90.6%,92.3%,83.5%,97.3%,95.5%,94.8%,96.3%,64.8%,75.3%,92.5%,79.2%,87.6%,89.7%,90.8%,89.5%,80.1%,90.7%,91.1%,84.5%,79.2%,86.1%,83.9%,85%,86.4%,94.1%,97.6%,81.4%,82.7%,89.2%,73%
CC(C)CC(N(C)C)C1(c2ccc(Cl)cc2)CCC1 (stereo not given),118%,136%,120%,119%,116%,117%,116%,113%,107%,94.5%,87%,110%,113%,113%,118%,117%,123%,119%,116%,98.2%,94.1%,99%,109%,110%,124%,115%,122%,119%,120%,112%,111%,103%,95.1%
NCCc1ccc(O)c(O)c1,118%,124%,123%,119%,131%,112%,131%,125%,104%,27.5%,7.83%,120%,112%,115%,127%,121%,124%,113%,110%,110%,54.3%,14%,,,,,,,,,,,
CN(C(Cc1ccc(O[S+](=O)([O-])c2cccc3cnccc23)cc1)C(=O)N1CCN(c2ccccc2)CC1)[S+](=O)([O-])c1cccc2cnccc12 (stereo not given),127%,98.3%,109%,113%,103%,120%,132%,95.2%,105%,77%,48.4%,93.8%,81.5%,95.8%,101%,93.8%,86.3%,95.2%,82.6%,91.4%,82.5%,66.3%,82.5%,97.7%,99.8%,94.5%,89.2%,101%,93.9%,98.4%,93.8%,81.6%,56.1%
C[N+]1(C)[C@@H]2CC(OC(=O)C(O)(c3cccs3)c3cccs3)C[C@H]1[C@@H]1O[C@@H]12 (stereo not given in full),109%,113%,117%,126%,107%,120%,128%,113%,105%,110%,102%,101%,87.9%,88.8%,116%,102%,100%,92.2%,87.8%,95.6%,94.4%,107%,90.3%,105%,104%,106%,115%,94.9%,106%,97.3%,99.4%,99%,99.9%
Cc1cccc2c1CC[C@H](CN1CCC(c3c(Cl)cccc3Cl)CC1)C[C@@H]2O,99.8%,115%,116%,126%,133%,154%,150%,136%,116%,97.9%,83.9%,,,,,,,,,,,,103%,124%,130%,148%,129%,145%,143%,103%,82%,70.2%,61.5%
CC[C@@H]1C(=O)N(C)c2cnc(Nc3ccc(C(=O)NC4CCN(C)CC4)cc3OC)nc2N1C1CCCC1,125%,115%,124%,118%,45.9%,43.7%,57.4%,46.6%,36.9%,21.5%,4.78%,117%,112%,116%,117%,68.9%,28.6%,24.5%,27.1%,22.9%,14.3%,5.11%,107%,121%,113%,117%,53.9%,30%,32.6%,39%,30.9%,21.8%,10.4%
CCOC(=O)[C@@H](N)CCC(=O)N[C@@H](CSCc1ccccc1)C(=O)N[C@@H](C(=O)OCC)c1ccccc1,,,,,,,,,,,,,,,,,,,,,,,128%,116%,123%,130%,133%,136%,121%,133%,137%,139%,98.9%
COC(=O)[C@H](c1ccccc1Cl)N1CCc2sccc2C1,103%,110%,127%,117%,109%,104%,117%,37.4%,39.5%,24.8%,24.8%,87.8%,109%,89.1%,92.3%,103%,93.7%,97.4%,21.7%,20.9%,15.9%,14%,81%,90.5%,101%,94.4%,100%,103%,102%,36.6%,22.8%,23.6%,22.2%
